Laboratory results: patent US6825230B2, “Spiro and dispiro 1,2,4-trixolane antimalarials” (Medicines for Malaria Venture MMV, priority 2002, dated 2004)
Converted amounts (≈) assume the structure as drawn. Where two headings read alike, the source gives them in different places.

Key:
[1] = test system: chloroquine-resistant K1 strain of P. falciparum; assay: In vitro antimalarial semiautomated microdilution assay ([3H]-hypoxanthine incorporation), K1 strain; format: cell-based, Plasmodium falciparum; details: Plasmodium falciparum
How it was run: (§1)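 Semiautomated microdilution against intraerythrocytic P. falciparum from asynchronous stock cultures, with growth tracked by [3H]-hypoxanthine incorporation. IC50 values were estimated by Logit regression analysis.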

[2] = test system: chloroquine-sensitive NF54 strain of P. falciparum; assay: In vitro antimalarial semiautomated microdilution assay ([3H]-hypoxanthine incorporation), NF54 strain; format: cell-based, Plasmodium falciparum; details: Plasmodium falciparum
How it was run: as §1

[3] = test system: ANKA strain of P. berghei; assay: Single dose STI in vivo screen in infected mice; parameters: species or system Plasmodium berghei; details: for Survival (days) 10 mg/kg po: single 10 mg/kg po in 3% ethanol and 7% Tween 80; for Survival (days) 10 mg/kg po / Survival (days) 10 mg/kg SSV po / Survival (days) 10 mg/kg sc: untreated 6-7 days; for Survival (days) 10 mg/kg SSV po: single 10 mg/kg po in SSV; for Survival (days) 10 mg/kg sc: single 10 mg/kg sc in 3% ethanol and 7% Tween 80; for Survival (days) 3 mg/kg SSV po / Activity (%) 3 mg/kg SSV po: single 3 mg/kg po in SSV
[4] = K1, 72 h, read-out: IC50 (ng/ml) K1, chloroquine-resistant K1 strain, 72 h incubation
[5] = NF54, 72 h, read-out: IC50 (ng/ml) NF54, chloroquine-sensitive NF54 strain, 72 h incubation
[6] = single 10 mg/kg po in 3% ethanol and 7% Tween 80 on day 1 post-infection, percent reduction in parasitemia on day 3
[7] = single 10 mg/kg po in standard suspending vehicle (SSV) on day 1 post-infection, percent reduction in parasitemia on day 3
[8] = single 10 mg/kg sc in 3% ethanol and 7% Tween 80 on day 1 post-infection, percent reduction in parasitemia on day 3
[9] = chloroquine-resistant K1 strain, 72 h incubation, read-out: IC50 (ng/ml) K1
[10] = chloroquine-sensitive NF54 strain, 72 h incubation, read-out: IC50 (ng/ml) NF54
[11] = percent reduction in parasitemia on day 3

Row | Compound | IC50 [1, 4] | IC50 [2, 5] | Survival (days) 10 mg/kg po [3] | Activity (%) 10 mg/kg po [3, 6] | Survival (days) 10 mg/kg SSV po [3] | Activity (%) 10 mg/kg SSV po [3, 7] | Survival (days) 10 mg/kg sc [3] | Activity (%) 10 mg/kg sc [3, 8] | IC50 [1, 9] | IC50 [2, 10] | Survival (days) 3 mg/kg SSV po [3] | Activity (%) 3 mg/kg SSV po [3, 11] | Activity (%) 10 mg/kg SSV po ([3]; po, 10 mg/kg) | Activity (%) 10 mg/kg po ([3]; po, 10 mg/kg) | Activity (%) 10 mg/kg sc ([3]; sc, 10 mg/kg)
1 | CCS(=O)(=O)CCN1CCC2(CC1)OOC1(O2)C2CC3CC(C2)CC1C3 (stereo not drawn) [OZ200, Adamantane-2-spiro-3′-8′-[2′-(ethylsulfonyl)ethyl]-1′,2′,4′-trioxa-8′-azaspiro[4.5]decane] | 1 ng/mL (≈ 0.00259 µM) | 2.9 ng/mL (≈ 0.00752 µM) | 7.0 days | 81% | 7.3 days | 78% | 8.0 days | 92% | – | – | – | – | – | – | –
2 | O=C(O)CCC(=O)N[C@H]1CC[C@]2(CC1)OOC1(O2)C2CC3CC(C2)CC1C3 (stereo partly drawn) [OZ196] | > 10 ng/mL | > 10 ng/mL | 6.0 days | 10% | 5.3 days | 0% | 5.7 days | 17% | – | – | – | – | – | – | –
3 | NC(=O)N[C@H]1CC[C@]2(CC1)OOC1(O2)C2CC3CC(C2)CC1C3 (stereo partly drawn) [OZ221] | – | – | 6.3 days | 80% | 7.0 days | 87% | 8.0 days | 97% | > 10 ng/mL | > 10 ng/mL | – | – | – | – | –
4 | O=S(=O)(C[C@H]1CC[C@]2(CC1)OO[C@]1(O2)C2CC3CC(C2)CC1C3)c1ncccn1 [OZ299] | 6.8 ng/mL (≈ 0.0162 µM) | 6.3 ng/mL (≈ 0.015 µM) | – | – | 6.6 days | 36% | – | – | – | – | 6.4 days | 0% | – | – | –
5 | NC(=O)CN(CC(N)=O)C[C@H]1CC[C@]2(CC1)OOC1(O2)C2CC3CC(C2)CC1C3 (stereo partly drawn) [OZ236] | 2 ng/mL (≈ 0.00491 µM) | 2 ng/mL (≈ 0.00491 µM) | 6.3 days | 89% | 7.7 days | 86% | 7.7 days | 98.61% | – | – | – | – | – | – | –
6 | NNC(=O)C[C@H]1CC[C@]2(CC1)OO[C@]1(O2)C2CC3CC(C2)CC1C3 [OZ340] | 4.9 ng/mL (≈ 0.0146 µM) | 2.9 ng/mL (≈ 0.00862 µM) | – | – | 9.2 days | 93% | – | – | – | – | 6.4 days | 36% | – | – | –
7 | COCC(=O)N(Cc1ccccc1)C1CCC2(CC1)OOC1(O2)C2CC3CC(C2)CC1C3 (stereo not drawn) [OZ173] | 58 ng/mL (≈ 0.131 µM) | 32 ng/mL (≈ 0.0725 µM) | 7.0 days | 15% | 6.7 days | 0% | 9.7 days | 80% | – | – | – | – | – | – | –
8 | c1c[nH]c([C@H]2CC[C@]3(CC2)OOC2(O3)C3CC4CC(C3)CC2C4)n1 (stereo partly drawn) [OZ251] | – | – | 6.7 days | 29% | 6.0 days | 6% | 9.0 days | 99.87% | 0.6 ng/mL (≈ 0.00182 µM) | 0.35 ng/mL (≈ 0.00106 µM) | – | – | – | – | –
9 | O=C1c2ccccc2C(=O)N1C[C@H]1CC[C@]2(CC1)OOC1(O2)C2CC3CC(C2)CC1C3 (stereo partly drawn) [OZ146] | – | – | 7.0 days | 62% | 6.3 days | 40% | 9.0 days | 91% | 2.2 ng/mL (≈ 0.00519 µM) | 2.7 ng/mL (≈ 0.00638 µM) | – | – | – | – | –
10 | O=C(O)c1nccnc1C(=O)N1CCC2(CC1)OOC1(O2)C2CC3CC(C2)CC1C3 (stereo not drawn) [OZ109, Adamantane-2-spiro-3′-8′-[(3′-carboxypyrazinyl)carbonyl]-1′,2′,4′-trioxa-8′-azaspiro[4.5]decane] | 21 ng/mL (≈ 0.0505 µM) | 24 ng/mL (≈ 0.0578 µM) | 5.7 days | 2% | 5.7 days | 0% | 6.3 days | 24% | – | – | – | – | – | – | –
11 | O=C1c2ccccc2C(=O)N1CC[C@H]1CC[C@]2(CC1)OOC1(O2)C2CC3CC(C2)CC1C3 (stereo partly drawn) [OZ215] | – | – | 9.7 days | – | 6.3 days | – | 7.0 days | – | 6.4 ng/mL (≈ 0.0146 µM) | 7.3 ng/mL (≈ 0.0167 µM) | – | – | 25% | 96% | 39%
